According to the NIST ThermoML archive (doi:10.1021/je300873x):

Assay: mn = molality of the nth substance listed, in mol/kg
Details: for surface tension liquid-gas: Pendant drop shape; for electrical conductivity: Liquid, Digital conductivity meter

O [water] + CCCCCCCCCCCCCC[N+](C)(CCO)CCO.[Br-]
Details | surface tension liquid-gas [mN/m]
298.15 K, m2 = 0 | 72.17

O [water] + CCCCCCCCCCCCCC[N+](C)(C)CCO.[Br-]
Details | surface tension liquid-gas [mN/m]
298.15 K, m2 = 0 | 72.17

CCCCCCCCCCCC[N+](C)(C)CCO.[Br-] [dodecyl(2-hydroxyethyl)dimethylammonium bromide] + O
Details | electrical conductivity [S/m] | surface tension liquid-gas [mN/m]
298.15 K, m1 = 0.001 | – | 68.12
298.15 K, m1 = 0.00201 | – | 63.05
298.15 K, m1 = 0.00402 | – | 54.51
298.15 K, m1 = 0.00602 | – | 49.15
298.15 K, m1 = 0.00803 | – | 45.74
298.15 K, m1 = 0.00949 | 0.0809 | –
298.15 K, m1 = 0.00996 | 0.0847 | –
298.15 K, m1 = 0.01004 | – | 42.61
298.15 K, m1 = 0.01049 | 0.0889 | –
298.15 K, m1 = 0.01107 | 0.0935 | –
298.15 K, m1 = 0.01172 | 0.0987 | –
298.15 K, m1 = 0.01205 | – | 39.74
298.15 K, m1 = 0.01246 | 0.1047 | –
298.15 K, m1 = 0.01286 | 0.1079 | –
298.15 K, m1 = 0.01305 | – | 38.84
298.15 K, m1 = 0.01329 | 0.111 | –
298.15 K, m1 = 0.01375 | 0.1138 | –
298.15 K, m1 = 0.01424 | 0.116 | –
298.15 K, m1 = 0.01476 | 0.1177 | –
298.15 K, m1 = 0.01506 | – | 38.78
298.15 K, m1 = 0.01533 | 0.1196 | –
298.15 K, m1 = 0.01595 | 0.121 | –
298.15 K, m1 = 0.01661 | 0.1226 | –
298.15 K, m1 = 0.01707 | – | 38.7
298.15 K, m1 = 0.01733 | 0.1248 | –
298.15 K, m1 = 0.01812 | 0.1264 | –
298.15 K, m1 = 0.01899 | 0.1281 | –
298.15 K, m1 = 0.01994 | 0.1302 | –
298.15 K, m1 = 0.02009 | – | 38.51
298.15 K, m1 = 0.03014 | – | 38.4
298.15 K, m1 = 0.05027 | – | 38.38
303.15 K, m1 = 0.00945 | 0.0886 | –
303.15 K, m1 = 0.00992 | 0.093 | –
303.15 K, m1 = 0.01045 | 0.0974 | –
303.15 K, m1 = 0.01103 | 0.1025 | –
303.15 K, m1 = 0.01168 | 0.1068 | –
303.15 K, m1 = 0.01241 | 0.1148 | –
303.15 K, m1 = 0.01281 | 0.1182 | –
303.15 K, m1 = 0.01324 | 0.1212 | –
303.15 K, m1 = 0.01369 | 0.1246 | –
303.15 K, m1 = 0.01418 | 0.128 | –
303.15 K, m1 = 0.01471 | 0.1306 | –
303.15 K, m1 = 0.01527 | 0.1326 | –
303.15 K, m1 = 0.01589 | 0.1346 | –
303.15 K, m1 = 0.01655 | 0.1364 | –
303.15 K, m1 = 0.01727 | 0.1386 | –
303.15 K, m1 = 0.01805 | 0.1407 | –
303.15 K, m1 = 0.01892 | 0.1431 | –
303.15 K, m1 = 0.01986 | 0.1451 | –
308.15 K, m1 = 0.00993 | 0.1022 | –
308.15 K, m1 = 0.01046 | 0.1072 | –
308.15 K, m1 = 0.01104 | 0.112 | –
308.15 K, m1 = 0.01169 | 0.1179 | –
308.15 K, m1 = 0.01242 | 0.1251 | –
308.15 K, m1 = 0.01282 | 0.1293 | –
308.15 K, m1 = 0.01325 | 0.1334 | –
308.15 K, m1 = 0.0137 | 0.1371 | –
308.15 K, m1 = 0.01419 | 0.1408 | –
308.15 K, m1 = 0.01472 | 0.1443 | –
308.15 K, m1 = 0.01529 | 0.1472 | –
308.15 K, m1 = 0.0159 | 0.1496 | –
308.15 K, m1 = 0.01656 | 0.152 | –
308.15 K, m1 = 0.01728 | 0.1541 | –
308.15 K, m1 = 0.01807 | 0.1567 | –
308.15 K, m1 = 0.01893 | 0.1595 | –
308.15 K, m1 = 0.01987 | 0.1621 | –
313.15 K, m1 = 0.01044 | 0.1171 | –
313.15 K, m1 = 0.01102 | 0.1229 | –
313.15 K, m1 = 0.01167 | 0.1298 | –
313.15 K, m1 = 0.0124 | 0.1376 | –
313.15 K, m1 = 0.0128 | 0.1416 | –
313.15 K, m1 = 0.01322 | 0.1461 | –
313.15 K, m1 = 0.01368 | 0.1507 | –
313.15 K, m1 = 0.01417 | 0.1556 | –
313.15 K, m1 = 0.01469 | 0.1595 | –
313.15 K, m1 = 0.01526 | 0.1638 | –
313.15 K, m1 = 0.01587 | 0.1664 | –
313.15 K, m1 = 0.01653 | 0.1694 | –
313.15 K, m1 = 0.01725 | 0.1723 | –
313.15 K, m1 = 0.01803 | 0.1749 | –
313.15 K, m1 = 0.01889 | 0.1783 | –
313.15 K, m1 = 0.01984 | 0.1813 | –
318.15 K, m1 = 0.01042 | 0.127 | –
318.15 K, m1 = 0.01099 | 0.134 | –
318.15 K, m1 = 0.01164 | 0.1411 | –
318.15 K, m1 = 0.01237 | 0.1496 | –
318.15 K, m1 = 0.01277 | 0.1543 | –
318.15 K, m1 = 0.01319 | 0.1592 | –
318.15 K, m1 = 0.01365 | 0.1643 | –
318.15 K, m1 = 0.01414 | 0.1694 | –
318.15 K, m1 = 0.01466 | 0.174 | –
318.15 K, m1 = 0.01523 | 0.1791 | –
318.15 K, m1 = 0.01583 | 0.1838 | –
318.15 K, m1 = 0.01649 | 0.1877 | –
318.15 K, m1 = 0.01721 | 0.1908 | –
318.15 K, m1 = 0.018 | 0.1933 | –
318.15 K, m1 = 0.01885 | 0.1973 | –
318.15 K, m1 = 0.0198 | 0.2012 | –
323.15 K, m1 = 0.01039 | 0.1354 | –
323.15 K, m1 = 0.01097 | 0.1447 | –
323.15 K, m1 = 0.01162 | 0.1524 | –
323.15 K, m1 = 0.01234 | 0.1613 | –
323.15 K, m1 = 0.01274 | 0.1661 | –
323.15 K, m1 = 0.01317 | 0.1716 | –
323.15 K, m1 = 0.01362 | 0.1773 | –
323.15 K, m1 = 0.01411 | 0.1832 | –
323.15 K, m1 = 0.01463 | 0.1896 | –
323.15 K, m1 = 0.01519 | 0.1954 | –
323.15 K, m1 = 0.0158 | 0.2012 | –
323.15 K, m1 = 0.01646 | 0.2061 | –
323.15 K, m1 = 0.01717 | 0.21 | –
323.15 K, m1 = 0.01795 | 0.2148 | –
323.15 K, m1 = 0.01881 | 0.2187 | –
323.15 K, m1 = 0.01975 | 0.2216 | –
